Source: patent US20250241347A1, “COMPOSITIONS AND METHODS FOR TASTE MODULATION” (INTERNATIONAL FLAVORS & FRAGRANCES INC., priority 2019, published 2025)

Tests used:
[1] = Masking effect on Reb A, trained panel; design: species or system human; conditions: base Reb A 200 ppm in water; for Masking Intensity: panel average, scale 0-5
Excerpt: (§1) Preparation of Test Samples: […], oroxylin A-7 glucouronide, wogonoside, baicalein, oroxylin A and wogonin were purchased commercially. S. baicalensis extract (“Extract”) and cabohydrase-treated S. baicalensis extract (“Treated Extract”) were obtained as above in Example 1.
(§2) Subsequently, all compounds and extracts were applied to different bases for evaluating their off-taste masking functions.
(§3) Testing Procedure: The masking effects on the off-tastes (bitterness, sourness, astringency, lingering and drying aftertaste, etc.) associated with various food components was evaluated by a group of 16 trained panelist. Each provided a rank of masking intensity using the intensity scales of 0 to 5, where 0 represents “no masking effect,” 1 represents “minimal masking intensity” and 5 represents “the most masking intensity.” The average of the reported making intensity is presented in the following examples.
A base solution of Reb A was prepared in water (200 ppm). […] The flavor profile of the Reb A solutions with compounds or extracts were further evaluated and is reported in the following: […]

[2] = Masking effect on sorbic acid, trained panel; design: species or system human; conditions: base sorbic acid 150 ppm in water, test sample 0.5 ppm
Excerpt: as §1, §2, §3
A base solution of sorbic acid was prepared in water (150 ppm). […] The flavor profile of the sorbic acid solutions with compounds or extracts were further evaluated and is reported in the following: […]

[3] = Taste modulation in applications (Table 3), malic/citric acid base; conditions: base malic acid 1000 ppm and citric acid 2000 ppm in water; 1 ppm, composition composed only of wogonin
[4] = Masking effect on Reb M, trained panel; design: species or system human; conditions: base Reb M 200 ppm in water; for Masking Intensity: panel average, scale 0-5
Excerpt: as §1, §2, §3
A base solution of Reb M was prepared in water (200 ppm). […] The flavor profile of the Reb M solutions with compounds or extracts were further evaluated and is reported in the following: […]

[5] = Masking effect on benzoic acid, trained panel; design: species or system human; conditions: base benzoic acid 250 ppm in water, test sample 0.5 ppm
Excerpt: as §1, §2, §3
A base solution of benzoic acid was prepared in water (250 ppm). […] The flavor profile of the benzoic acid solutions with compounds or extracts was further evaluated and is reported in the following: […]

[6] = Taste modulating activity of the individual compounds; conditions: individual compounds, Example 1
Method: With bio-transformation, most baicalin was converted to baicalein; oroxylin A glucuronide was converted to oroxylin A; and wogonoside was converted to wogonin. The activity of the individual compounds was also analyzed for taste modulating activity.

[7] = Masking effect on Acesulfame-K, trained panel; design: species or system human; conditions: base Acesulfame-K 300 ppm in water, test sample 0.5 ppm
Excerpt: as §1, §2, §3
A base solution of Acesulfame-K was prepared in water (300 ppm). […] The flavor profile of the Acesulfame-K solutions with compounds or extracts were further evaluated and is reported in the following: […]

[8] = Masking effect on pea protein, trained panel; design: species or system human; conditions: base TRUPRO pea protein 5% in water, test sample 0.5 ppm
Excerpt: as §1, §2, §3
A base solution of TRUPRO® pea protein (Solae LLC) was prepared in water (5%). […] The flavor profile of the pea protein solutions with compounds or extracts were further evaluated and is reported in the following: […]

[9] = Masking effect on citric acid, trained panel; design: species or system human; conditions: base citric acid 300 ppm in water, test sample 0.5 ppm
Excerpt: as §1, §2, §3
A base solution of citric acid was prepared in water (300 ppm). […] The flavor profile of the citric acid solutions with compounds or extracts were further evaluated and is reported in the following: […]

COc1c(O)cc(O)c2c(=O)cc(-c3ccccc3)oc12 [Wogonin, 5,7-dihydroxy-8-methoxyflavone]
Masking Intensity ([1]; test sample 0.001 ppm): 1 | Flavor Profile ([1]; test sample 0.01 ppm): Slightly reduced astringency, licorice flavor | Masking Intensity ([1]; test sample 0.01 ppm): 2 | Masking Intensity ([1]; test sample 0.1 ppm): 3 | Masking Intensity ([1]; test sample 0.5 ppm): 4 | Masking Intensity ([1]; test sample 1 ppm): 5 | Masking Intensity ([1]; test sample 10 ppm): 3 | Masking Intensity ([1]; test sample 50 ppm): 2 | Flavor Profile [2]: Reduced astringency, sourness, and drying | Masking Intensity ([2]; panel average, scale 0-5): 5 | Functions [3]: Masked the sharp sourness, added mouthfeel | Masking Intensity ([4]; test sample 0.01 ppm): 1 | Flavor Profile ([4]; test sample 0.1 ppm): Slightly reduced bitterness and lingering | Masking Intensity ([4]; test sample 0.1 ppm): 3 | Flavor Profile ([4]; test sample 0.5 ppm): Reduced bitterness and lingering aftertaste, | Masking Intensity ([4]; test sample 0.5 ppm): 5 | Flavor Profile ([4]; test sample 10 ppm): Slightly reduced lingering aftertaste, very | Masking Intensity ([4]; test sample 10 ppm): 2 | Flavor Profile ([4]; test sample 50 ppm): Slightly reduced lingering aftertaste, | Masking Intensity ([4]; test sample 50 ppm): 1 | Flavor Profile [5]: Reduced astringency, sourness, and drying | Masking Intensity ([5]; panel average, scale 0-5): 5 | taste modulating activity [6]: more active | Flavor Profile [7]: Reduced bitterness and lingering aftertaste, | Masking Intensity ([7]; panel average, scale 0-5): 4 | Flavor Profile [8]: Reduced astringency and bitterness, less | Masking Intensity ([8]; panel average, scale 0-5): 5 | Flavor Profile [9]: Reduced tart taste, more pleasant | Masking Intensity ([9]; panel average, scale 0-5): 4
